Tests used:
male ICR mice [1] = assay: Spatial working memory, modified Y-maze, scopolamine-induced amnesia; assay type: in vivo, mouse; conditions: for Percentage of unfamiliar arm exploration: n = 5
Procedure: (§1) The experimental protocols were submitted and approved by the Bioethics Committee of the Faculty of Medicine and Psychology, Autonomous University of Baja California University, Tijuana, México (Record No. 666/2021-2). To perform the in vivo cognitive test experiments, male ICR mice eight weeks of age were used. The animals were housed with access to water and food under a 12 h light and dark cycle, with controlled temperature and humidity.
(§2) To carry out the cognition experiments, we used the methods previously described in detail by Arunrungvichian K., et al., 2015, in which they produced pharmacological amnesia using scopolamine in a mouse model. […] All compounds were administered by intraperitoneal injection in a volume of 5 mL/kg. Saline solution was used for the vehicle group (SH).
We use the maze used in the spontaneous alternation tests except for the use of a partition to close one of three arms. Here, mice, throughout multiple arm entries, should tend to enter a less recently visited arm or an unfamiliar arm of the maze. The mice were injected with compound 1, SH, DZ, and scopolamine (1 h and 30 min) before starting experiments. Each mouse was placed at the end of one arm and allowed to move freely for 5 min to get familiar with the two open arms. All arms were opened after 30 min of resting to allow entering in all three arms. An entry was counted if mice accessed an arm at least 10 cm. The percentage of unfamiliar arm exploration was calculated as Equation (2):(2) Percentage of unfamiliar arm exploration=number of unfamiliar arm entry/number of all arms entry×100

male ICR mice [2] = assay: Novel Object Recognition (NOR) test, scopolamine-induced amnesia; assay type: in vivo, mouse; conditions: for effect on episodic short-term memory (DI vs amnesic group): donepezil 1 mg/kg, oxazolone (1) 5, 10, 25 and 100 μmol/kg, i.p.; for Discrimination Index (DI): scopolamine-treated mice, n = 5, mean ± SE
Procedure: as §1, §2
We employed the Novel Object Recognition Test (NOR) to assess recognition memory, a valuable tool for evaluating cognitive impairment in rodents and testing the impact of new drugs on cognition. This test involves an open-field arena containing two distinct types of objects, each with unique colors and shapes for easy discrimination. The basis of this test lies in rodents’ natural inclination to spend more time exploring a new object compared to a familiar one, leading to the calculation of a Discrimination Index (DI).
The testing procedure unfolded as follows: On the first day, the mice were allowed to freely explore the open-field apparatus for 5 min to become accustomed to the environment. On the second day, oxazolone 1, DZ, and SH were administered 1 h prior, while SC was given 30 min before the acquisition trial. During this trial, the mice were introduced to the apparatus with two identical objects. After spending 10 min in their cages, one of the objects was replaced with a new one, and the mice were granted 5 min to explore these objects during the retention trial. We meticulously recorded the time the mice spent exploring each object, defined as when their noses approached within 3 cm or when they made contact with the objects. The DI was calculated as (TN – TF)/(TN + TF), with TN representing the exploration time of the new object and TF indicating the exploration time of the familiar object.

[3] = target: T1, human acetylcholinesterase (hAChE) (Homo sapiens, UniProt P22303); assay: hAChE inhibitory screening (Ellman method); assay type: biochemical; conditions: n = 3
T1 construct: purchased Sigma Aldrich; host or cells: HEK 93 cells (so in the source)
Procedure: (§3) Recombinant hAChE expressed in HEK 93 cells, a lyophilized powder (Sigma Aldrich, Mexico), was dissolved in TBSA/sodium azide 0.02% and then was stored in aliquots at −20 °C. Each aliquot was diluted as required in a solution of PBS 0.1M pH 7.4/BSA 0.01% on the day of the experiment.
The spectrophotometric method of Ellman was used to evaluate the inhibition of hAChE. The assay was carried out by double beam UV-Vis 6705 Janway spectrophotometer at room temperature, using optical polystyrene cuvettes of 1.0 cm path length (10 × 10 × 45 mm, 340–800 nm optical transparency). Each test compound was dissolved in ethanol. […] Aliquots of 970 μL of PBS 0.1 M pH 7.4/BSA 0.01% containing DTNB (300 μM) and 10 μL of hAChE (0.2 μM) were placed in the polystyrene cuvette. An amount of 10 μL of a stock solution to obtain a final concentration of 100 or 300 μM of the tested compound was added. In total, 10 μL of an aqueous solution of acetylthiocoline 10 mM was added to start the reaction. The absorbance of the sample by the generation of the yellow 5-nitro-2-tio-benzoic anion was recorded at 412 nm at room temperature after 1 min. As a control, an identical enzyme solution without the inhibitor was processed following the same protocol to determine 100% of enzyme activity. […] Each experiment was repeated at least in triplicate. The capacity of each compound to inhibit hAChE was expressed as percent inhibition calculated using Equation (1):(1) Inhibition(%)=Ac−Ai×100/Ac where Ac and Ai represent the change in the absorbance in the […], respectively.

[4] = target: T1, human acetylcholinesterase (hAChE); assay: Kinetic determinations of reversible hAChE inhibition (Ellman assay); assay type: biochemical; conditions: for Ki: room temperature, 0.1 M PBS pH 7.4, n = 3, read-out: Inhibition Constant (Ki); for Parameter α: α of Vmax and Km referred to control AChE activity, mixed model inhibition; for decrease in inhibition potency compared to (1): from Ki values
Procedure: as §3
Reversible inhibition assays from all hAChE were measured using a spectrophotometric Ellman assay at room temperature in 0.1 M PBS pH 7.4, containing 0.01% BSA, containing DTNB 300 µM as a chromogen. The equilibrium dissociation constant (Ki) of the hAChE–oxazolone conjugate was determined using different substrate concentrations (s) ranging from 0.05 to 0.200 mM, and at least four different concentrations of the oxazolones (i) were applied at a given substrate concentration in order to obtain hAChE inhibition between 20% and 80% to establish the affinity for each hAChE–oxazolone conjugate combination. The enzyme activity (ν) was plotted versus the substrate concentration [S] analyzed by non-linear regression analysis (Michaelis–Menten plot); data were transformed into a double reciprocal Lineweaver–Burk plot. Plots 1/ν versus 1/[S] were generated by plotting the slope versus the oxazolone concentration and the ordinate versus the oxazolone concentration of the primary plot. The processing of experimental data to define the oxazolones affinity was performed by a linear regression analysis where the y-intercept determines the enzyme-inhibitor dissociation constants (Ki), while the x-intercept determines the enzyme-substrate dissociation constant (Ks). The equation was used assuming that the substrate, due to low substrate concentrations used in experiments, binds only to the catalytic site, while the inhibitor can bind to both sites, catalytic and peripheral. To determine the mechanism of inhibition, we used the dose-response curves fitted using the Mixed Model Inhibition by the constants Vmax and Km calculated from Michaelis–Menten kinetics that includes competitive, uncompetitive, and non-competitive inhibition as special cases. The GraphPad Prims 6.0 software, San Diego, CA, USA was used to calculate the kinetics. All data are shown as means of n = 3.

[5] = target: T1, human acetylcholinesterase (hAChE); assay: Estimation of IC50 values on hAChE (Ellman, 96-microwell plates); assay type: biochemical; conditions: room temperature, 0.1 M PBS pH 7.4; n = 3
Procedure: as §3
The concentrations of test compounds that inhibited the hydrolysis of substrates by 50% (IC50) were determined by monitoring the effect of various concentrations of oxazolones in the assays on the inhibition values. To study the potency, the oxazolones with an inhibition greater than 50% were selected, taken from the screening test results at 300 μM. All the inhibition studies were performed at room temperature in 96-microwell plates using Multiskan FC 5111900 (Lab Systems, CA, USA). The DTNB was used for the measurement of hAChE activity. In total, 174 μL in 0.1 M PBS pH 7.4/0.01% BSA, containing 300 μM DTNB final concentration, 2 μL of test-compound solution, and 2 μL of hAChE solution (0.2 μM) were mixed. The reaction was then initiated by adding 2 μL acetylthiocholine (10 mM), and the plate was read immediately. The formation of yellow 2-nitro-5-tiobenzoico acid due to the reaction of DTNB with thiocholine monitored the enzymatic hydrolysis of acetylthiocholine. Measures were at a wavelength of 412 nm at room temperature after 1 min. The IC50 values were then calculated using the GraphPad Prism 6.0 software (San Diego, CA, USA). All data are shown as means of n = 3.

male ICR mice [6] = assay: Y-maze spontaneous alternation test; assay type: in vivo, mouse; conditions: 1 h before, 8 min in Y-maze, n = 5, mean ± SE
Procedure: as §1, §2

T1 sequence (P22303 32-614): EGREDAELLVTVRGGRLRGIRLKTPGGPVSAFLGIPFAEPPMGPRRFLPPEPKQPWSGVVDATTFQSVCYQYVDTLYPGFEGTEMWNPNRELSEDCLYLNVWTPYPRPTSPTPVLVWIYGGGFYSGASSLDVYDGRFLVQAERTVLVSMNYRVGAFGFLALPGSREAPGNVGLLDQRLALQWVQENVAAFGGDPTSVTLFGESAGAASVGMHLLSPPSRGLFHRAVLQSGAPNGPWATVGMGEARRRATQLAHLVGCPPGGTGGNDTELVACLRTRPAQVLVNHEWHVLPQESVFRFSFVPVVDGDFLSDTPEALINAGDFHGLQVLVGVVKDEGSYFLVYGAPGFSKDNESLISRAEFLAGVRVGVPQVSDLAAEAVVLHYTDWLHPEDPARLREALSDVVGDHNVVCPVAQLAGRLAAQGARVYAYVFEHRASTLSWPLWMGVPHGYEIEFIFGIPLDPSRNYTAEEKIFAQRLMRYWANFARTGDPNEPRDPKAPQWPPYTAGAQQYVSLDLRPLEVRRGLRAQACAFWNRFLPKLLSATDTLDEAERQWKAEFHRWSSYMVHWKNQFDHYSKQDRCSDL

## COc1cc2c(cc1OC)C(=O)C(CC1CCN(Cc3ccccc3)CC1)C2 (centres unmarked) [Donepezil, donepezil, reference compound]
Male ICR mice [1]; 1 mg/kg i.p., p < 0.001 vs scopolamine group
  effect on cognitive decline induced by scopolamine (novel arm exploration): notably reversed
Male ICR mice [2]
  effect on episodic short-term memory (DI vs amnesic group): substantially improved episodic short-term memory

## O=C1OC(/C=C/c2ccccc2)=NC/1=C\c1ccccc1 [Oxazolone 1, 4-((Z)-benzylidene)-2-((E)-styryl)oxazol-5(4H)-one]
[3]; 100 μM compound
  inhibition at 100 µM: 61.3%
[4]
  Mode of Inhibition: Competitive
  Ki: 2.08 ± 0.36 µM
  Parameter α: 21.84
[5]
  IC50: 9.2 ± 2.3 µM
Male ICR mice [6]; 5 μmol/kg i.p.
  locomotor activity, number of arm entries: 31.8 ± 2.1 entries
Male ICR mice [6]; 50 μmol/kg i.p.
  locomotor activity, number of arm entries: 34 ± 2.3 entries
Male ICR mice [1]; 25 μmol/kg i.p., scopolamine-treated mice, mean ± SE
  Percentage of unfamiliar arm exploration: 37.83 ± 0.7%
Male ICR mice [1]; 100 μmol/kg i.p., scopolamine-treated mice, mean ± SE
  Percentage of unfamiliar arm exploration: 48.30 ± 5.4%
Male ICR mice [2]; 10 μmol/kg i.p.
  Discrimination Index (DI): 0.317 ± 0.051
Male ICR mice [2]; 100 μmol/kg i.p.
  Discrimination Index (DI): 0.360 ± 0.056
Male ICR mice [2]
  effect on episodic short-term memory (DI vs amnesic group): substantially improved episodic short-term memory

## Cc1ccc(/C=C2N=C(/C=C/c3ccccc3)OC\2=O)cc1 [Oxazolone 2, 4-((Z)-4-methylbenzylidene)-2-((E)-styryl)oxazol-5(4H)-one]
[4]
  Mode of Inhibition: Competitive
  Ki: 108 ± 7.77 µM
  Parameter α: 4.98
[5]
  IC50: 95.5 ± 1.47 µM

## O=C1OC(/C=C/c2ccccc2)=NC/1=C\c1ccc(Cl)cc1 [Oxazolone 3, 4-((Z)-4-chlorobenzylidene)-2-((E)-styryl)oxazol-5(4H)-one]
[3]; 100 μM compound
  Inhibition (%) of hAChE: inactive
[3]; 300 μM compound
  Inhibition (%) of hAChE: moderate inhibitory activity
[4]
  Mode of Inhibition: Competitive
  Ki: 98.4 ± 24 µM
  Parameter α: >1000
[5]
  IC50: 89.3 ± 22.3 µM

## COc1ccc(/C=C2N=C(/C=C/c3ccccc3)OC\2=O)cc1 [Oxazolone 4, 4-((Z)-4-methoxybenzylidene)-2-((E)-styryl)oxazol-5(4H)-one]
[3]; 100 μM compound
  inhibition at 100 µM: 49%
[4]
  Mode of Inhibition: Competitive
  Ki: 157 ± 46 µM
  Parameter α: 4.16
[5]
  IC50: 137 ± 34.2 µM

## CC(=O)Oc1cccc(/C=C2N=C(/C=C/c3ccccc3)OC\2=O)c1 [Oxazolone 5, 3-((Z)-(5-oxo-2-((E)-styryl)oxazol-4(5H)-ylidene)methyl)phenyl acetate]
[4]
  Mode of Inhibition: Non-competitive
  Ki: 183 ± 46 µM
  Parameter α: 1
[5]
  IC50: 204 ± 39.7 µM

## CC(=O)Oc1ccc(/C=C2N=C(/C=C/c3ccccc3)OC\2=O)cc1 [Oxazolone 6, 4-((Z)-(5-oxo-2-((E)-styryl)oxazol-4(5H)-ylidene)methyl)phenyl acetate]
[4]
  Mode of Inhibition: uncompetitive
  decrease in inhibition potency compared to (1): approximately 100 fold
  Ki: 198 ± 49.5 µM
  Parameter α: 0.006
[5]
  IC50: 246 ± 51.2 µM

## CC(=O)Oc1cccc(/C=C2N=C(/C=C/c3ccccc3)OC\2=O)c1O [Oxazolone 7, 2-hydroxy-3-((Z)-(5-oxo-2-((E)-styryl)oxazol-4(5H)-ylidene)methyl)phenyl acetate]
[4]
  Mode of Inhibition: Competitive
  decrease in inhibition potency compared to (1): roughly 33 fold
  Ki: 67 ± 19 µM
  Parameter α: 18.27
[5]
  IC50: 37.1 ± 1.61 µM

## CN1[C@@H]2C[C@@H](OC(=O)[C@H](CO)c3ccccc3)C[C@H]1[C@@H]1O[C@@H]12 [scopolamine, reference compound]
Male ICR mice [1]; scopolamine group, 1 mg/kg i.p. 30 min before
  Percentage of unfamiliar arm exploration: 28.58 ± 5%

Reference: PMC10649417, “Inhibitory Activity of 4-Benzylidene Oxazolones Derivatives of Cinnamic Acid on Human Acetylcholinesterase and Cognitive Improvements in a Mouse Model” (Molecules, 2023)
